Our source for the IC50 values is US8178558B2, “Substituted pyridylmethyl bicycliccarboxyamide compounds” (Pfizer Inc., priority 2006, dated 2012).

The test deals with T1, human VR1 receptors (Homo sapiens, UniProt Q8NER1).
T1 construct: host or cells: cells that express human VR1 receptors (cell type not specified)
The test can be described thus: Human VR1 antagonist assay (Ca2+ imaging). The test is classed as cell-based. The conditions noted are these: Ca2+ imaging (fura-2/AM) in cells highly expressing human VR1; agonist stimulation. The text has this:
Human VR1 Antagonist Assay
VR1 antagonistic activity can be determined by the Ca^2+ imaging assay using human VR1 highly expressing cells. The cells that highly express human VR1 receptors are obtainable from several different conventional methods. The one standard method is cloning from human Dorsal Root Ganglion (DRG) or kidney according to the methods such as described in the journal article; Nature, 389, pp 816-824, 1997. Alternatively VR1 receptors highly expressing human keratinocytes are also known and published in the journal article (Biochemical and Biophysical Research Communications, 291, pp 124-129, 2002). […] Furthermore, the method to up regulate human VR1 gene, which is usually a silent gene or don't produce detectable level of VR1 receptors, is also available to obtain propriety cells. Such genetic modification method was described in detail; Nat. Biotechnol., 19, pp 440-445, 2001.
The cells that express human VR1 receptors were maintained in culture flask at 37° C. in an environment containing 5% CO2 until use in the assay. The intracellular Ca^2+ imaging assay to determine VR1 antagonistic activities were done by following procedures.
The culture medium was removed from the flask and fura-2/AM fluorescent calcium indicator was added to the flask at a concentration of 5 μM in the medium. The flask was placed in CO2 incubator and incubated for 1 hour. Then the cells expressing the human VR1 receptors were detached from the flask follow by washing with phosphate buffer saline, PBS(−) and re-suspended in assay buffer. The 80 μl of aliquot of cell suspension (3.75×10^5 cells/ml) was added to the assay plate and the cells were spun down by centrifuge (950 rpm, 20° C., 3 minutes).
The compounds of the examples were tested in the Human VR1 antagonist assay described above.
Capsaicin Stimulation Assay
The capsaicin-induced changes in the intracellular calcium concentration were monitored using FDSS 6000 (Hamamatsu Photonics, Japan), a fluorometric imaging system. The cell suspension in Krebs-Ringer HEPES (KRH) buffer (115 mM NaCl, 5.4 mM KCl, 1 mM MgSO4, 1.8 mM CaCl2, 11 mM D-Glucose, 25 mM HEPES, 0.96 mM Na2HPO4, pH 7.3) were pre-incubated with varying concentrations of the test compounds or KRH buffer (buffer control) for 15 minutes at room temperature under the dark condition. Then capsaicin solution, which gives 300 nM in assay mixture, was automatically added to the assay plate by the FDSS 6000.
The Acid-induced changes in the intracellular calcium concentration were monitored using FDSS 6000 (Hamamatsu Photonics, Japan), a fluorometric imaging system. The cell suspension in resting buffer (HBSS supplemented with 10 mM HEPES, pH 7.4) were pre-incubated with varying concentrations of the test compounds or resting buffer (buffer control) for 15 minutes at room temperature under the dark condition. The cells were automatically added the stimulating solution (HBSS supplemented with MES, final assay buffer pH5.8) by the FDSS 6000.
Determination of Antagonist Activity
The monitoring of the changes in the fluorescence signals (λex=340 nm/380 nm, λem=510-520 nm) was initiated at 1 minute prior to the addition of capsaicin solution or acidic buffer and continued for 5 minute.

T1 sequence (Q8NER1 whole entry): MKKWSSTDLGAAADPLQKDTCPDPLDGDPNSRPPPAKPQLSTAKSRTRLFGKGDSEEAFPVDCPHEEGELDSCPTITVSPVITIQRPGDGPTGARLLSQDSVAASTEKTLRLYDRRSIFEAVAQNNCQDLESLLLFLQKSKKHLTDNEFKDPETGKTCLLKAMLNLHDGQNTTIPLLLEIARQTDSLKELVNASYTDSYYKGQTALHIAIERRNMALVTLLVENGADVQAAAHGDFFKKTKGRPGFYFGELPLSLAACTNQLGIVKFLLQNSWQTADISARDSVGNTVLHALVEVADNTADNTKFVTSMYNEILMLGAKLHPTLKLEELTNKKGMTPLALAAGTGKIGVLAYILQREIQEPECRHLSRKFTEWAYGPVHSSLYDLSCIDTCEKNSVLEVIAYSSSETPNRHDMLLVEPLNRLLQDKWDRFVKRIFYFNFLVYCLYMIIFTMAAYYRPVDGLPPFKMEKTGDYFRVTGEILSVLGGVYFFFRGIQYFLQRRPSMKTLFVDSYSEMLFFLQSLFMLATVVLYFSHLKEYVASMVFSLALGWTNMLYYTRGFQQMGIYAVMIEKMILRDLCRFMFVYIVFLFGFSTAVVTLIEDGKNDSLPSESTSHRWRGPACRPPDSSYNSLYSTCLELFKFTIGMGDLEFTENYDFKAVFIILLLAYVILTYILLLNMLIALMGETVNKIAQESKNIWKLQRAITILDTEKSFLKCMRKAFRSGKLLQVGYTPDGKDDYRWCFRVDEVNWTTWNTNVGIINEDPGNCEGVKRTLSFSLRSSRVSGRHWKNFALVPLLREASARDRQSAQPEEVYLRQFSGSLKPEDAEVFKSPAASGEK

In general, IC50 refers to the point on the concentration scale where inhibition reaches its midpoint. A higher IC50 goes with weaker potency in that assay. On to `C[C@@H](NC(=O)c1ccc2cc(C(C)(C)C)ccc2c1)c1ccc(CO)nc1` [Example A5, 6-tert-butyl-N-{(1R)-1-[6-(hydroxymethyl)pyridin-3-yl]ethyl}-2-naphthamide], for which the concentration for half-maximal inhibition (IC50) stood at 127 nM. For `Cc1ccc(CNC(=O)c2ccc3cc(C(C)(C)C)ccc3c2)cn1` [Example A1, 6-tert-butyl-N-[(6-methylpyridin-3-yl)methyl]-2-naphthamide] the value was 250 nM; for `Cc1cc(CNC(=O)c2ccc3cc(C(C)(C)C)ccc3n2)c(C)cn1` [Example D2], 85.1 nM.

In turn, `CC[C@@H](NC(=O)c1ccc2cc(C(C)(C)C)ccc2c1)c1ccc(C)nc1` [Example A6, (R)-6-tert-butyl-N-(1-(6-methylpyridin-3-yl)propyl)-2-naphthamide] displayed an IC50 of 261 nM. Consider `Cc1cc(CNC(=O)c2ccc3cc(C(C)(C)C)ccc3c2)c(C)cn1` [Example C4, 6-tert-butyl-N-[(2,5-dimethylpyridin-4-yl)methyl]-2-naphthamide], for which the IC50 came to 32.5 nM. This IC50 lies about 8-fold lower than the previous one. Molecule `Cc1cc([C@@H](C)NC(=O)c2ccc3cc(C(C)(C)C)ccc3c2)ccn1` [Example C3, 6-tert-butyl-N-[(1R)-1-(2-methylpyridin-4-yl)ethyl]-2-naphthamide] yielded a concentration for half-maximal inhibition (IC50) of 77.5 nM.

`Cc1cc(CNC(=O)c2ccc3cc(C(C)(C)C)ccc3n2)ccn1` [Example D1] showed an IC50 of 231 nM.

`Cc1ncc([C@@H](C)NC(=O)c2ccc3cc(C(C)(C)C)ccc3c2)cc1Cl` [Example A4, 6-tert-butyl-N-[(1R)-1-(5-chloro-6-methylpyridin-3-yl)ethyl]-2-naphthamide] showed a 50% inhibitory concentration (IC50) of 271 nM. The IC50 values of the last two molecules are within 1.5-fold of each other. Molecule `COc1cc(CNC(=O)c2ccc3cc(C(C)(C)C)ccc3c2)ccn1` [Example C2, 6-tert-butyl-N-[(2-methoxypyridin-4-yl)methyl]-2-naphthamide] returned an IC50 of 203 nM. `Cc1ccc([C@@H](C)NC(=O)c2ccc3cc(C(C)(C)C)ccc3c2)cn1` [Example A3, 6-tert-butyl-N-[(1R)-1-(6-methylpyridin-3-yl)ethyl]-2-naphthamide] came in with an IC50 of 96 nM. For `C[C@@H](NC(=O)c1ccc2cc(C(C)(C)C)ccc2c1)c1ccncc1` [Example C1, 6-tert-butyl-N-[(1R)-1-pyridin-4-ylethyl]-2-naphthamide], the half-inhibitory concentration (IC50) was found to be 451 nM. For `Oc1cc2c(cc1O)CN(C(=S)NCCc1ccc(Cl)cc1)CCC2` [Capsazepine, reference compound] the value was 237 to 455 nM; for `Cc1ccc([C@@H](C)NC(=O)c2ccc3cc(C(C)(C)C)ccc3n2)cn1` [Example B1, 6-tert-butyl-N-[(1R)-1-(6-methylpyridin-3-yl)ethyl]quinoline-2-carboxamide], 426 nM. Under `Cc1ccc(C(C)NC(=O)c2ccc3cc(C(C)(C)C)ccc3c2)cn1` (centres unmarked) [Example A2, 6-tert-butyl-N-[1-(6-methylpyridin-3-yl)ethyl]-2-naphthamide] stands 67.8 nM.
